Results on eleven compounds are retold here after PMC7470127, “Design, synthesis, and evaluation of 1, 4-benzodioxan-substituted chalcones as selective and reversible inhibitors of human monoamine oxidase B” (Journal of Enzyme Inhibition and Medicinal Chemistry, 2020).

What is called IC50 is the concentration at which inhibition is half-maximal. As usually defined, the inhibition is the share of the control response that was lost under treatment. A low value points to a weak effect. The melting point is the temperature, or range, at which the solid turns liquid. By IC80 is commonly meant the concentration needed for an effect of 80%. Low readings indicate an effect from little substance, high ones a need for much substance.

One data set concerns the target T1, hMAO-A (Homo sapiens, UniProt P21397).
T1 sequence (P21397 1-527): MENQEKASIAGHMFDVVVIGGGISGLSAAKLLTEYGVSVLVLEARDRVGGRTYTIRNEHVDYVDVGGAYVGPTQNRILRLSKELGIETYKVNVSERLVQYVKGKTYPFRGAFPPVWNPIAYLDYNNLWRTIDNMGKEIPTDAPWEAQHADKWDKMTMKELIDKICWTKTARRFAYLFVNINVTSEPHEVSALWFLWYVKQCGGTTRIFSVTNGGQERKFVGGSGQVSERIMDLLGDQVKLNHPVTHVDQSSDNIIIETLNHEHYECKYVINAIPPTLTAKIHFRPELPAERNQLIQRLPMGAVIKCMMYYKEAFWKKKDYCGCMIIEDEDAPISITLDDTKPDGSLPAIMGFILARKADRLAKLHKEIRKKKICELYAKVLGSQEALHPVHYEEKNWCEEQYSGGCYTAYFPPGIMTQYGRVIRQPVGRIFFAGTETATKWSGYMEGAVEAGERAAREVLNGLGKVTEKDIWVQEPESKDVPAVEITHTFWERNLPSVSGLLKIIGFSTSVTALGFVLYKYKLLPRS
Put plainly: hMAO inhibition assay (Amplex Red fluorescence), hMAO-A, p-tyramine substrate. The format is biochemical. The note with it: recombinant hMAO-A. As for the experimental part:
The hMAO inhibition assay was performed as previously described. Adequate amounts of recombinant hMAO-A/B were acquired and adjusted to 12.5 µg/mL or 75 µg/mL for hMAO-A or hMAO-B, respectively, with sodium phosphate buffer (50 mM, pH 7.4). The test compounds were dissolved in DMSO as stock solutions (10 mM) and diluted with sodium phosphate buffer (50 mM, pH 7.4) to the corresponding concentrations. Then the test compounds (20 µL) and hMAO (80 µL) were incubated for 15 min at 37 °C in a flat, black-bottomed 96-well microtest plate in the dark. The reaction was initiated by adding Amplex Red reagent (200 µM, final concentration), horseradish peroxidase (2 U/mL, final concentration), and 2 mM p-tyramine for hMAO-A or 2 mM benzylamine (final concetration) for hMAO-B and incubated at 37 °C for 20 min. Activity was quantified in a multi detection microplate fluorescence reader (SpectraMax M5, Molecular Devices, USA) based on the fluorescence generated (excitation, 545 nm; emission, 590 nm). The specific fluorescence emission was calculated after subtraction of the background activity. The background activity was determined from wells containing all components except the hMAO isoforms, which were replaced by a sodium phosphate buffer solution. The percentage inhibition was calculated by the following expression: (1 – IFi/IFc) × 100, in which IFi and IFc are the fluorescence intensities obtained for hMAO in the presence and absence of inhibitors after subtracting the respective background. […]

In data set [1] the target is T2, hMAO-B (Homo sapiens, UniProt P27338).
T2 sequence (P27338 1-520): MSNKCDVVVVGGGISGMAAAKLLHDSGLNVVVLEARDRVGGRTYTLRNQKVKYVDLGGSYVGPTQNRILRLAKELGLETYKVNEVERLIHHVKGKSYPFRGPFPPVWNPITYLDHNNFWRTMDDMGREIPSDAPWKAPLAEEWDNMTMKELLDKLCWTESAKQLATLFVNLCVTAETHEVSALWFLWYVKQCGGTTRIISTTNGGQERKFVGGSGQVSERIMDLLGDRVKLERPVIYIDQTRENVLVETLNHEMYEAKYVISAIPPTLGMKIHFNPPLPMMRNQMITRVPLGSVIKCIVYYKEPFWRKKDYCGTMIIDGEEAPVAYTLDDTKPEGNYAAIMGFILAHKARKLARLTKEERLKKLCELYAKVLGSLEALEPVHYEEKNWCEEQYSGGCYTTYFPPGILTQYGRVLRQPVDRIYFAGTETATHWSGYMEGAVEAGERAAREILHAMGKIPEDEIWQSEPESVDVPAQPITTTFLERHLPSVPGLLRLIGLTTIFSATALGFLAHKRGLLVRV
As to the kind of experiment: hMAO inhibition assay (Amplex Red fluorescence), hMAO-B, benzylamine substrate. Particulars: for inhibition at 1 µM: tested concentration 1 µM; for Selectivity Index (SI): SI = IC50 (hMAO-A)/IC50 (hMAO-B); for IC50: recombinant hMAO-B, read-out: hMAO-B IC50. The format is biochemical. How it is done: The hMAO inhibition assay was performed as previously described. […] The test compounds were dissolved in DMSO as stock solutions (10 mM) and diluted with sodium phosphate buffer (50 mM, pH 7.4) to the corresponding concentrations. […] The specific fluorescence emission was calculated after subtraction of the background activity. The background activity was determined from wells containing all components except the hMAO isoforms, which were replaced by a sodium phosphate buffer solution. The percentage inhibition was calculated by the following expression: (1 – IFi/IFc) × 100, in which IFi and IFc are the fluorescence intensities obtained for hMAO in the presence and absence of inhibitors after subtracting the respective background.

Data set [2] addresses T2, hMAO-B. Particulars: cited from earlier work.
In data set [3] the target is T2, hMAO-B. As to the kind of experiment: Reversibility study: time-dependent inhibition of hMAO-B. The format is biochemical. Particulars: for IC80: compounds used at the concentration of their IC80. How it is done: Control experiments without inhibitors were run simultaneously. The enzymatic activity was determined as described above. The percentage of enzyme activity was plotted against the incubation time to determine time-dependent enzyme inhibition.

Read-outs that look alike come from different tables or passages of the source.

Consider `O=C(/C=C/c1ccc2c(c1)OCCO2)c1ccc(Br)cc1` [Compound 19, (E)-1–(4-bromophenyl)-3–(2,3-dihydrobenzo[b][1,4]dioxin-6-yl)prop-2-en-1-one], for which the melting point fell in the range of 136.7 to 138.2 °C. For the same compound, the IC50 on hMAO-A is greater than 40 µM. This compound registered an inhibition at 1 µM at hMAO-B [1] of 68.1%.
With `O=C(/C=C/c1ccc2c(c1)OCCO2)c1ccc(F)cc1` [Compound 20, (E)-3-(2,3-dihydrobenzo[b][1,4]dioxin-6-yl)-1-(4-fluorophenyl)prop-2-en-1-one], the melting point was 135.5 to 136.5 °C. For the same compound, at hMAO-A, the 50% inhibitory concentration (IC50) was greater than 40 µM. For the same compound, at hMAO-B [1], the “Selectivity Index (SI)” value is on record as greater than 588, the IC50 was found to be 0.068 ± 0.007 µM and the inhibition at 1 µM stood at 87.5%.
`Brc1cccc(COc2ccc3c(c2)OCCO3)c1` [Compound 7c]: the “inhibition mode of hMAO-B” value on hMAO-B [2] (ref [17]) is recorded as “reversible inhibition”.
In turn, `COc1ccc(C(=O)/C=C/c2ccc3c(c2)OCCO3)cc1` [Compound 8, (E)-3–(2,3-dihydrobenzo[b][1,4]dioxin-6-yl)-1-(4-methoxyphenyl)prop-2-en-1-one] yielded a melting point of 93.8 to 94.9 °C. The IC50 at hMAO-A is greater than 40 µM. Besides, the inhibition at 1 µM against hMAO-B [1] amounted to 51.7%.
For `C#CCN[C@@H]1CCc2ccccc21` [rasagiline, reference compound], at hMAO-B [3], the IC80 was 0.2 µM.
On to `Cc1ccc(C(=O)/C=C/c2ccc(F)c(Br)c2)s1` [Compound 4h], for which the “inhibition mode of hMAO-B” value at hMAO-B [2] (ref [13]) was “reversible inhibition”.
As for `COc1ccc(C(=O)/C=C/c2ccc(Cl)cc2)c(O)c1` [Compound 5i], at hMAO-B [2] (ref [12]), the “inhibition mode of hMAO-B” value was “irreversible inhibition”.
As for `O=C(/C=C/c1ccc2c(c1)OCCO2)c1cc(Cl)ccc1O` [Compound 25, (E)-1-(5-chloro-2-hydroxyphenyl)-3-(2,3-dihydrobenzo[b][1,4]dioxin-6-yl)prop-2-en-1-one], the melting point was in the range of 136.2 to 137.3 °C. Moreover, the IC50 at hMAO-A was greater than 40 µM. For the same compound, on hMAO-B [1], the “Selectivity Index (SI)” value was greater than 125, the IC50 worked out at 0.32 ± 0.05 µM and 1 µM produced 78.4% inhibition.
Compound `O=C(/C=C/c1ccc2c(c1)OCCO2)c1ccccc1Cl` [Compound 13, (E)-1-(2-chlorophenyl)-3-(2,3-dihydrobenzo[b][1,4]dioxin-6-yl)prop-2-en-1-one] came in with a melting point of 67.5 to 69.4 °C. Moreover, the IC50 on hMAO-A was greater than 40 µM. Moreover, on hMAO-B [1], the “Selectivity Index (SI)” value is recorded as greater than 741, the IC50 worked out at 0.054 ± 0.006 µM and the inhibition at 1 µM was 92.4%. On hMAO-B [1] (from IC50, versus compound 4), the “fold higher inhibitory potency than 4” value is 1.8–4.1 fold.
`O=C(/C=C/c1ccc2c(c1)OCCO2)c1cccc(O)c1` [Compound 9, (E)-3–(2,3-dihydrobenzo[b][1,4]dioxin-6-yl)-1-(3-hydroxyphenyl)prop-2-en-1-one]: the melting point fell in the range of 196.8 to 198.5 °C. Also, the IC50 on hMAO-A is greater than 40 µM. At hMAO-B [1], the “Selectivity Index (SI)” value is greater than 267, the IC50 was 0.15 ± 0.007 µM and testing at 1 µM gave an inhibition of 86.3%.
Compound `C[C@H](NCc1ccc(OCc2cccc(F)c2)cc1)C(N)=O` [safinamide, reference compound] showed an IC80 at hMAO-B [3] of 0.06 µM. In addition, the “time after which the residual activity of hMAO-B began to increase” value on hMAO-B [3] (inhibitor at IC80) turned out to be 15 min. In addition, the “reversibility of hMAO-B inhibition” value on hMAO-B [3] (inhibitor at IC80, activity followed for 120 min) was “reversible”.
